Test results published in PMC12621175, “Scaffold Fusion and SAR Transfer with a Chemical Language Model Generates Novel Liver X Receptor Modulators” (Journal of Medicinal Chemistry, 2025).
Entries after “also recorded” stand apart in the source; their conditions may differ.

Legend:
ABCA1 = test: qPCR of LXR-regulated mRNA expression in HepG2: ABCA1; type: cell-based, human; conditions: HepG2, 24 h
LXRβ = biological target: T1, LXRβ (Homo sapiens, UniProt P55055); test: Gal4-LXRβ hybrid reporter gene assay; type: cell-based
T1 construct: coding for the hinge region, and LBD of the canonical isoform of the respective nuclear receptor; expressed in transfected cells; host or cells: HEK293T
T1 sequence (P55055 222-460 limits assumed): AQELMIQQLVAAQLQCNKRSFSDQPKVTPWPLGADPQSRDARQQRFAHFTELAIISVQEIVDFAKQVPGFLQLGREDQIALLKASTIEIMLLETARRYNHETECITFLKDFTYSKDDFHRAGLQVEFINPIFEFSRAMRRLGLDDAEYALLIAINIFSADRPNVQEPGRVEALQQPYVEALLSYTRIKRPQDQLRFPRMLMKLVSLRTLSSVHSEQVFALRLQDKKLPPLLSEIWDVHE
Protocol: (§1) The LXR-responsive reporter ABCA1-pGL3 was used for the full-length reporter gene assay.
(§2) The day before transfection, HEK293T cells were seeded in 96-well plates (4 × 10^4 cells/well). Before transfection, the medium was changed to Opti-MEM without any supplements. Transient transfection was carried out using Lipofectamine LTX reagent (Invitrogen) according to the manufacturer’s protocol with (a) pFR-Luc (Stratagene), pRL-SV40 (Promega), and the corresponding Gal4-fusion nuclear receptor plasmid or (b) the LXR-responsive reporter ABCA1-pGL3 and pRL-SV40 (Promega). […] Each concentration was tested in duplicate, and each experiment was repeated in at least three biologically independent repeats. […] Luminescence was measured with a Spark 10 M luminometer (Tecan Deutschland GmbH). Normalization of transfection efficiency and cell growth was done by division of firefly luciferase data by renilla luciferase data multiplied by 1000, resulting in relative light units (RLU). Fold activation was obtained by dividing the mean RLU of the tested compound at a respective concentration by the mean RLU of the untreated 0.1% DMSO control. […] Separate control experiments to exclude nonspecific reporter gene activation or VP16-mediated effects were performed following the same procedure in the absence of a nuclear receptor expression plasmid (pFR-Luc, pRL-SV40, and pECE-SV40-Gal4-VP16 only).

HepG2 cells [1] = test: lipid accumulation assay (Oil Red O staining); type: cell-based; conditions: 72 h
Protocol: HepG2 cells were seeded in collagen-coated 96-well plates at a density of 10^4 cells per well and incubated for 24 h. For the lipolytic mode, the cells were pretreated for additional 24 h with 66.7 μM oleic acid and 33.3 μM palmitic acid in culture medium with 1% bovine serum albumin (BSA). The cells were then treated with DMSO (0.1%) alone or in combination with test compounds in the culture medium. After 72 h, the cells were washed with PBS (2 × 50 μL) and fixed with 10% formalin solution (50 μL) for 15 min. After removal of the fixative, the cells were washed with H2O (2 × 50 μL), followed by 50 μL of 60% iPrOH and incubated with 50 μL Oil Red O solution (0.3% in 60% iPrOH) for 10 min to stain neutral lipids. The cells were washed quickly with 50 μL of 60% iPrOH and 2 × 50 μL of PBS. Microscopic images were taken using a 40x objective on a BZ-X810 microscope (KEYENCE, Frankfurt, Germany). Images were analyzed using ImageJ software (v1.54) according to a literature method.

HEK293T cells = test: resazurin-based proliferation assay, HEK293T; type: cell-based
Protocol: (§3) HepG2 or HEK293T cells were seeded in 96-well plates (4 × 10^4 cells per well). […] After 4, 14, and 24 h, the medium was aspirated, and the cells were incubated with 100 μM resazurin solution in Opti-MEM (prepared from a 0.15 mg/mL resazurin stock in DPBS) for 60 min. The metabolic activity was assessed by conversion of resazurin to resorufin, which was quantified by measuring absorbance at 570 nm and a reference wavelength of 600 nm. The cell count was calculated from a calibration curve with 0–10^5 cells per well in steps of 2 × 10^4.

LXRα = biological target: T2, LXRα (Homo sapiens, UniProt Q13133); test: Gal4-LXRα hybrid reporter gene assay; type: cell-based; conditions: for classification: applies to LXRa and LXRb; for LXR modulation in Gal4 hybrid reporter gene assays (mode of action): both LXR subtypes (LXRα and LXRβ)
T2 construct: coding for the hinge region, and LBD of the canonical isoform of the respective nuclear receptor; expressed in transfected cells; host or cells: HEK293T
T2 sequence (Q13133 209-447 limits assumed): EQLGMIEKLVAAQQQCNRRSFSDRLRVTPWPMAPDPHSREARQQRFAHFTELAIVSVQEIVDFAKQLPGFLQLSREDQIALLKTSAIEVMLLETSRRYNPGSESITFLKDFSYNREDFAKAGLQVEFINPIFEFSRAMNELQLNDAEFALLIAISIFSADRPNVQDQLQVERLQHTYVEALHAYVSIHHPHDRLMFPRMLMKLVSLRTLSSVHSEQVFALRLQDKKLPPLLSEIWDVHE
Protocol: as §1, §2

HepG2 cells [2] = test: resazurin-based proliferation assay, HepG2; type: cell-based
Protocol: as §3

SREBP1c = test: qPCR of LXR-regulated mRNA expression in HepG2: SREBP1c; type: cell-based, human; conditions: HepG2, 24 h

| EC50 (LXRβ; classification agonist, read-out: LXRb pEC50/pIC50 (converted)) [nM] | EC50 (LXRα; classification agonist, read-out: LXRa pEC50/pIC50 (converted)) [nM] | SMILES | ABCA1 mRNA expression (ABCA1; 3 μM) | lipid accumulation (lipogenesis) (HepG2 cells [1]; 10 μM, compared to T0901317 10 μM) | antiproliferative effect (HEK293T cells; 10 μM) | classification (LXRα) | LXR modulation in Gal4 hybrid reporter gene assays (mode of action) (LXRα) | antiproliferative effect (HepG2 cells [2]; 10 μM) | SREBP1c mRNA expression (SREBP1c; 3 μM) | ABCA1 mRNA expression (ABCA1; 30 μM) | IC50 (LXRβ) [nM] | effect on T0901317-induced lipogenesis (HepG2 cells [1]; 30 μM with T0901317 10 μM) | lipid accumulation (lipogenesis) (HepG2 cells [1]; 30 μM) | antiproliferative effect (HEK293T cells; 30 μM) | IC50 (LXRα) [nM] | antiproliferative effect (HepG2 cells [2]; 30 μM) | SREBP1c mRNA expression (SREBP1c; 30 μM) | mrna remaining at 30 µM (SREBP1c; Homo sapiens, 30 μM) [%] |
| --- | --- | --- | --- | --- | --- | --- | --- | --- | --- | --- | --- | --- | --- | --- | --- | --- | --- | --- |
| 589 | 562 | CCN(C(=O)c1ccccc1)c1ccc(C(O)(C(F)(F)F)C(F)(F)F)cc1 [Compound 1, N-Ethyl-N-(4-[1,1,1,3,3,3-hexafluoro-2-hydroxypropan-2-yl]phenyl)benzamide] | induced | formation of less lipids in HepG2 cells than the structurally related full agonist T0901317; also recorded: induced lipogenesis after 72 h less efficiently | did not inhibit the proliferation | agonist | partial agonists | did not inhibit the proliferation | induced |  |  |  |  |  |  |  |  |  |
|  |  | CS(=O)(=O)c1cccc(-c2ccc(CN(Cc3cccc(C(F)(F)F)c3Cl)CC(c3ccccc3)c3ccccc3)cc2)c1 [Compound 3, N-(2-Chloro-3-[trifluoromethyl]benzyl)-N-([3′-{methylsulfonyl}-{1,1′-biphenyl}-4-yl]methyl)-2,2-diphenylethan-1-amine] |  |  |  | antagonist | did not activate LXRs but suppressed LXR activation by the reference agonist T0901317 |  |  | did not significantly alter the expression; also recorded: only a weak impact | 2950 | significantly attenuated T0901317-induced lipogenesis; also recorded: mitigated T090-induced steatosis | did not induce lipid accumulation; also recorded: did not stimulate lipid accumulation | did not inhibit the proliferation | 7590 | did not inhibit the proliferation | repressed SREBP1c expression; also recorded: robustly suppressed SREBP1c | 10 |
